This note sets out measurements from patent US20260076909A1, “SOLID COMPOSITION AND METHOD FOR PRODUCING THE SAME” (DKS Co. Ltd., priority 2022, published 2026).

Series [1] can be described thus: Amorphization evaluation: XRD. It is filed as physicochemical. How it is done:
A “RINT UltimaIII horizontal goniometer (D/teX-25)” manufactured by Rigaku Corporation was used to obtain the XRD chart of such a solid composition. The XRD measurement conditions were the focusing method, X-ray: Cu/40 kV/40 mA, scanning range: 3.0° to 50.0°, and scanning axis: 2θ/θ.

The nature of series [2]: Dissolution test 1: dissolution amount. It is filed as physicochemical. The settings on record: cannabidiol; 8 mg in capsule, 900 mL ion-exchanged water, 37° C., 0.45 μm filtrate. How it is done:
As the dissolution testing apparatus, an “NTR-6600AST” manufactured by Toyama Sangyo Co., Ltd. was used; the vessel was charged with 900 mL of ion-exchanged water; for the purpose of degassing, the water was stirred overnight at a water temperature of 37° C.±0.2° C. A gelatin capsule (“HF capsule” manufactured by Matsuya Corporation) filled with the solid composition containing 8 mg of the cannabidiol was placed into a sinker, and immersed into the vessel. After a lapse of a predetermined time, sampling was performed in the vessel and the sample was filtered through a 0.45 μm membrane filter. […] The filtrate was diluted two-fold with ethanol and filtered through a 0.20 μm membrane filter; HPLC was performed to quantify the cannabidiol. For each solid composition, two samples were tested and the resultant values were averaged; the average was rounded to two decimal places to determine the dissolution amount.
The 0.45 μm membrane filter employed was “25HP045AN” (filter material: PTFE, pore size: 0.45 μm) manufactured by ADVANTEC. The 0.20 μm membrane filter employed was “13HP020AN” (filter material: PTFE, pore size: 0.20 μm) manufactured by ADVANTEC.
The HPLC conditions were column: octadecylsilyl column, solvent: mixed solution of acetonitrile/10 mM aqueous ammonium acetate solution, and wavelength: 210 nm. […]

The nature of the next series: Dissolution test 2. It is filed as physicochemical. The settings on record: composition with 0.4 mg cannabidiol in 45 g ion-exchanged water, 0.45 μm filtrate. As to the method: In a 50 mL screw vial, such a solid composition including 0.4 mg of cannabidiol was dissolved in 45 g of ion-exchanged water. The resultant solution was filtered through a 0.45 μm membrane filter; the filtrate was diluted two-fold with ethanol and further filtered through a 0.20 μm membrane filter; HPLC was performed to quantify the cannabidiol. The value was rounded to two decimal places to determine the dissolution amount. The 0.45 μm membrane filter, the 0.20 μm membrane filter, and the HPLC conditions were as described in the dissolution test 1.

A short description of series [3]: Oral absorption evaluation: animal experiment. It is filed as in vivo. The settings on record: male SD rats, 30 mg/kg in terms of cannabidiol, 0.5-24 hours, highest AUC of three rats. As to the method: Of the three rats, data of the highest AUC was employed.
In the LC-MS/MS measurement, as a pre-treatment, 20 μL of the plasma sample and 80 μL of methanol were placed into an Eppendorf tube and suspended for deproteinization. After the proteins were precipitated in a centrifuge, the supernatant was subjected to centrifugal filtration using a filter (manufactured by Millipore, Ultrafree-MC, Hydrophilic PTFE membrane, 0.2 μm). This solution and ultrapure water were mixed together in 1:1 (mass ratio), and used as the measurement sample. The measurement conditions of LC-MS/MS were column: octadecylsilyl column, ion source: ESI+, mobile phase: solution mixture of methanol/10 mM aqueous ammonium formate solution.
The solid composition of Example 5 was evaluated for oral absorption by an animal experiment similar to that for the solid composition of Example 3. Specifically, while the powder composed only of cannabidiol in Comparative Example 1 was used as the control, the animal experiment was performed in accordance with the above-described oral absorption evaluation method.

For `C=C(C)[C@@H]1CCC(C)=C[C@H]1c1c(O)cc(CCCCC)cc1O` [Comparative Example 1, cannabidiol], the “Form of the cannabinoid from the XRD chart (in words)” value in series [1] was “crystalline state”. Moreover, in series [2], the “Dissolution amount after lapse of 120 minutes” value came to 0.01 µg/mL and the “Dissolution amount after lapse of 240 minutes” value was found to be 0.01 µg/mL. The “Dissolution test 2 dissolution amount” value in the series “Dissolution test 2” was 0.03 µg/mL. Also, the “AUC (area under the blood concentration time curve) of the cannabidiol” value in series [3] (30 mg/kg) stood at 665 ng·h/mL. For the same compound, in series [3] (rat, plasma, read-out: AUC (area under the blood concentration time curve) of the cannabidiol), the AUC turned out to be 812 ng·h/mL.
